Broadly, the IC50 is the concentration that gives 50% inhibition.

Data set [1] concerns fragments of bovine cartilage. In words: In vitro inhibition of bovine cartilage catabolism (cartilage fragments stimulated with TNFα and oncostatin M, 21 days). In kind it is cell-based. Particulars: for percentage inhibition of the degradation of the proteins in the cartilage: D21; for percentage inhibition of the degradation of the GAGs: D21, DMB technique. How it is done:
The study was carried out on fragments of bovine cartilage in culture medium (96-well plate), the degradation of which is stimulated by adding TNFα and oncostatin M (Schaller, S., Henriksen, K., Hoegh-Andersen, P., Sondergaard, B. C., Sumer, E. U., Tanko, L. B., Qvist, P., Karsdal, M. A. In vitro, ex vivo, and in vivo methodological approaches for studying therapeutic targets of osteoporosis and degenerative joint diseases: how biomarkers can assist? Assay. Drug Dev. Technol. 3, 553-580 (2005).
(§1) The duration of the cultivation period is 21 days (culture medium changed every 2 days). A group not treated with TNFα and oncostatin M constitutes the control group. Five lots of stimulated cartilage fragments were treated with the compound of Example 1, each at a different dose: 0.01; 0.1; 1; 3 and 10 mM. 5 replications were carried out for each dose.
On D19, the concentration of CTX II (fragment of type II collagen resulting from the degradation of that collagen by metalloproteases) in the culture medium is measured using an ELISA technique. That parameter is expressed in ng/ml/mg of cartilage.
On D21, the following are measured in the cartilage remaining at the end of cultivation: • the quantity of proteins, using the kit marketed by Biorad. For the groups treated with the compound of Example 1, the results of this parameter are expressed as the percentage inhibition of the degradation of the proteins in the cartilage of the untreated control group; • and the quantity of glycosaminoglycans (GAGs), using the […] (DMB). That parameter, too, is expressed as a percentage inhibition of the degradation of the GAGs evaluated in the control group after culturing for 21 days. Results

The subject of data set [2] is fragments of bovine cartilage. Briefly: Alamar blue toxicity test in the bovine cartilage culture. It is filed as cell-based. The settings on record: 21 days of cultivation, whatever the dose (0.01-10 mM). How it is done:
as §1
The treatment is moreover well tolerated by the cells for the 21 days of cultivation (toxicity test employed: Alamar blue—negative whatever the dose).

For the compound `O=S(=O)([O-])CCCS(=O)(=O)[O-].[Sr+2]` [Example 1, Strontium 1,3-propanedisulphonate], in data set [1] (D19, ELISA, TNFα + oncostatin M stimulated cartilage, significant (p<0.001), dose-dependent, read-out: inhibition of the salting out of CTX II in the culture medium (IC50)), the IC50 turned out to be 3.5 mM. For the same compound, the “percentage inhibition of the degradation of the proteins in the cartilage” value was 22% in data set [1] (dose 1 mM); 41% in data set [1] (dose 3 mM); 55%* in data set [1] (dose 10 mM, *p < 0.05). For the same compound, the “percentage inhibition of the degradation of the GAGs” value came to 4% in data set [1] (dose 1 mM); 8% in data set [1] (dose 3 mM); 26%** in data set [1] (dose 10 mM, **p < 0.01). Also, in data set [2], the “toxicity test Alamar blue (tolerance by the cells)” value was “negative”.

These data come from patent US7999009B2, “Strontium salts of sulphonic acids, a process for their preparation and pharmaceutical compositions containing them” (Les Laboratoires Servier, priority 2006, dated 2011).
